For assay [1], the target named is recombinant feline FP receptor (Felis catus, UniProt A0ABI7XJ69). The experiment in a line: Ca2+ signal in HEK-293 cells stably transfected with recombinant feline FP receptor. It counts as cell-based, cat. The settings on record: HEK-293 cells, recombinant feline FP receptor; read-out: E.C.50, Ca2+ signal. As for the experimental part: (§1) Human CRL 1497 cells were plated in culture flasks and fed Dulbecco's modified Eagle's medium (DMEM) containing 10% fetal calf serum, 2 mM 1-glutamine, and 0.05 mg/ml gentacin (all purchased from Gibco, Grand Island, N.Y.). Cell cultures were maintained in a humidified atmosphere of 95% air, 5% CO2 and grown to confluency. Cells were removed from the culture flasks by approximately 1 min treatment with trypsin 0.05%/0.53 mM EDTA in Hanks Balanced Salt Solution (HBSS, Gibco, Grand Island, N.Y.) at 37° C. Proteolytic activity was arrested by adding 5 ml of 10% fetal bovine serum in DMEM. The cells were consecutively washed in Hank's BSS and medium containing 140 mM NaCl, […], 1 mM MgCl2, 1.5 mM CaCl2, 10 mM HEPES: TRIS, 5 mM glucose, 5 mM Na pyruvate, 0.1% bovine serum albumin at pH 7.4: Centrifugation for the washes was performed for 15 minutes at 200 g at room temperature. Cells were counted, resuspended in the above medium and incubated with 2×10^−6 M Fura 2/acetoxymethyl ester in a shaking water bath for 30 minutes at 37° C. The cells were subsequently washed in medium as above and resuspended at a concentration of 2×10^6 cells ml^−1. Aliquots of 0.5 ml cell suspension were then added to autocap microtubes to provide 10^6 cells per experimental determination of intracellular free Ca^2+ concentration ([Ca^2+]i).
Chain of recombinant feline FP receptor (A0ABI7XJ69 entry or part of it): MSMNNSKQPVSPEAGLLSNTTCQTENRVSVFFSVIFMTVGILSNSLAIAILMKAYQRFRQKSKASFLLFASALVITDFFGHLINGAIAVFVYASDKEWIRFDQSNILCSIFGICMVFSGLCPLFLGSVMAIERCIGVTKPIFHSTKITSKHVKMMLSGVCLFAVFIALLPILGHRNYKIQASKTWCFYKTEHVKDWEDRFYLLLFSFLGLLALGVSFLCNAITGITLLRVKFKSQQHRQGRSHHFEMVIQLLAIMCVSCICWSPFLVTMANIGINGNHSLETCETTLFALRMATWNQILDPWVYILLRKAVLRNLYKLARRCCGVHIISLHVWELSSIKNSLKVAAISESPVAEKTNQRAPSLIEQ
(§2) Fluorescence was measured in a Perkin-Elmer LS-5 fluorescence spectrophotometer at excitation and emission wavelengths of 340 and 492 nm, respectively, with both slits at 10 nm. For each experimental determination 10^6 cells were washed (200×g for 5 min) and suspended in a 2 ml cuvette with buffer containing 120 mM NaCl, 6 mM KCl, 1 mM MgSO4, 1.5 mM CaCl2, 20 mM HEPES, 1 mg ml^−1 glucose and 1 mg ml^−1 Na pyruvate. Stirring was achieved by an overhead-mounted, paddle stirrer with the temperature maintained at 37° C. The cells were lysed with digitonin (10 μl of 100 mg ml^−1 DMSO) to obtain fmax. EGTA (100 mM) and sufficient 10N NaOH to adjust the pH to 8.5 were then successively added to obtain fmin.
HEK-293 cells were grown in DMEM with 10% fetal bovine serum (FBS), 250 μg ml^−1 G418 (Life Technologies) and 200 μg ml^−1 gentamicin or penicillin/streptomycin. […] For transfection, the cells were grown to 50-60% confluency on 10 cm plates. The plasmid pCEP4 incorporating cDNA inserts for the human FP receptor (20 μg) was added to 500 μl of 250 mM CaCl2. HEPES buffered saline×2 (2×HBSS, 280 mM NaCl, 20 mM HEPES acid, 1.5 mM Na2 HPO4, pH 7.05-7.12) was then added dropwise to a […], with continuous vortexing at room temperature. After 30 min, 9 ml DMEM were added to the mixture. The DNA/DMEM/calcium phosphate mixture was then added to the cells, which had been previously rinsed with 10 ml phosphate buffered saline (PBS). The cells were then incubated for 5 h. at 37° C. in humidified 95% air/5% CO2. The calcium phosphate solution was then removed and the cells were treated with 10% glycerol in DMEM for 2 min. The glycerol solution was then replaced by DMEM with 10% fetal bovine serum (FBS). The cells were incubated overnight and the medium was replaced by DMEM/10% FBS containing 250 μg ml^−1 G418 and penicillin/streptomycin. The following day hygromycin B was added to a final concentration of 200 μg ml^−1.
Ten days after transfection, hygromycin B resistant clones were individually selected and transferred to a separate well on a 24 well plate. […]

The test system of assay [2] is rabbit jugular vein segment. Briefly: Vasorelaxation of histamine precontracted rabbit jugular vein segment. As for the experimental part:
Smooth muscle tension of isolated tissues was measured isometrically with force displacement transducers (Grass FT-03) and recorded on Grass Polygraphs (Models 7G and 79E). The organ baths contained Krebs solution maintained at 37° C. and gassed with 95% 02/5% CO2 to give a pH of 7.4. The Krebs solution had the following composition (mM): NaCl, 118.0; KCl, 4.7; KH2PO4, 1.2; CaCl2, 1.9; MgSO4, 1.18; NaHCO3, 25.0; glucose, 11.7; indomethacin, 0.001.
New Zealand albino rabbit of either sex, weighing 2-4 kg, were injected with 1000 U heparin into the marginal ear vein and then sacrificed by CO2 gas. The external jugular veins were cleared of fat and adherent connective tissue and removed. The veins were transected and each ring of 3-4 mm length was suspended between two metal hooks in a jacketed organ bath. The tissues were equilibrated for 1 hr under 0.75 g tension, which was readjusted as the tissues relaxed. Single doses of histamine, 10^−5 M then 2-3×10^−6 M, with washing after each dose, were given to contract the tissue and establish responsiveness. The TP-receptor antagonist SQ29548, (Ogletree et al. (1985) J. Pharmacol. Exp. Ther. 234 435-441) at (10^−6 M), was applied for 5 min and then histamine 2-3×10^−6 M was added to elicit the contractile response. After 30 min of pretreatment with the histamine, the relaxant response was tested by adding cumulative doses of the test compounds with 10^−8 M to 10^−7 M PGE2 at the end of each dose-response curve as a reference. A recovery period of 30-50 min was allowed after wash-out of the tissues. Relaxant activity was calculated as % of the control tone elicited by histamine.

For a further assay, the target named is human FP receptor (Homo sapiens, UniProt P43088). The experiment in a line: Ca2+ signal in CRL 1497 cells. More on the design: endogenous in cells; host or cells: CRL 1497 human dermal fibroblasts; Δ[Ca^2+]i mean χ ± SEM: unit not given here. To be noted: CRL 1497 cells, n = 4. It counts as cell-based. The method, then:
as §1, §2

The next assay has as its system intraocular pressure. To be noted: prior art research of the assignee; cited from earlier work.

Molecules are shown by their SMILES.

Chain of human FP receptor (P43088 whole entry): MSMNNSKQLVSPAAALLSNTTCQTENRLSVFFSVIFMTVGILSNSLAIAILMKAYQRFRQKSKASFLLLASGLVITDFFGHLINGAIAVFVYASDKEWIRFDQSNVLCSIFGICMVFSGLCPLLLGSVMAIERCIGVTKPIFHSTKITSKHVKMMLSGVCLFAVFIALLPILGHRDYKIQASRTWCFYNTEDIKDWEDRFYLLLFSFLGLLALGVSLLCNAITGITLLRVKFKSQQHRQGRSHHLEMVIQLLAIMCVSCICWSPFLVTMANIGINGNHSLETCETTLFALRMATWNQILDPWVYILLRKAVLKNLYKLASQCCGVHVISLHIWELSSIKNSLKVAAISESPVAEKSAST

Regarding `CCCCC[C@H](O)/C=C/[C@@H]1[C@@H](C/C=C\CCCC(=O)O)[C@@H](O)C[C@H]1O` [PGF2α, reference compound], the EC50 in assay [1] amounted to 14 nM; in assay [2] (Oryctolagus cuniculus, histamine precontracted, read-out: E.C.50, vasorelaxation of the precontracted rabbit jugular vein segment) it was 5.3 nM. Moreover, the endothelium dependent vasorelaxation result in assay [2] (histamine precontracted rabbit jugular vein segment) is given as “marked vasorelaxation”. For the same molecule, the “Δ[Ca^2+]i mean χ ± SEM” value at human FP receptor (10^−5 M) amounted to 136.7 ± 11.2; on human FP receptor (10^−6 M), 127.4 ± 7.6; at human FP receptor (10^−7 M) it was 124.1 ± 6.5; on human FP receptor (10^−8 M), 47.7 ± 9.4; on human FP receptor (10^−9 M), 5.6 ± 2.4.
For the molecule `CCNC(=O)CCC/C=C\C[C@@H]1[C@@H](/C=C/[C@@H](O)CCc2ccccc2)[C@H](O)C[C@@H]1O` [prior art compound no. 1], in the assay with intraocular pressure, the intraocular hypotensive activity result is recorded as “strong intraocular hypotensive activity”.
As for `CCCCCC(/C=C/[C@H]1C(O)CC(O)[C@@H]1C/C=C\CCCC(N)=O)OC` (stereo partly shown) [prior art compound no. 2], in the assay with intraocular pressure, the intraocular hypotensive activity entry is “strong intraocular hypotensive activity”.

The values above are taken from patent US6395787B1, “Ocular hypotensive lipids” (Allergan Sales, Inc., priority 2000, dated 2002).
